Experimental data: patent US20150238494A1, “HIGHLY SOLUBLE PURINE BIOACTIVE COMPOUNDS AND COMPOSITIONS THEREOF” (JHO Intellectual Property Holdings, LLC, priority 2014, published 2015)

How the values were obtained:
[1] = Stability of theacrine solution 1.3 mg/ml in USP Type I glass vials, 15 weeks at RT and 40° C.; assay type: physicochemical; conditions: 1.3 mg/ml solution, in % (unit assumed)
Procedure: The Table 1 below is data indicating assay results for stability of a theacrine solution prepared at 1.3 mg/ml and stored in USP Type I Glass vials for 15 weeks at RT and 40° C.

[2] = Stability of theacrine solutions 0.1%, 0.2%, 0.4% in USP type I glass vials, 3 months at 40° C.; assay type: physicochemical; conditions: Storage 40 C., in % (unit assumed)

Q: Which Assay ([1]; Room Temperature (RT), 1-wk) does the source give for `Cn1c(=O)c2c(n(C)c1=O)n(C)c(=O)n2C` [Theacrine, 1,3,7,9-Tetramethyluric acid] here?
A: 98.7

Q: And the Assay ([1]; Room Temperature (RT), 2-wk)?
A: 100.1

Q: And the Assay ([1]; Room Temperature (RT), 4-wk)?
A: 99.2

Q: And the Assay ([1]; Room Temperature (RT), 8-wk)?
A: 99.9

Q: What about the Assay ([1]; Room Temperature (RT), 15-wk) of the same compound?
A: 99.3

Q: And the Assay ([1]; Room Temperature (RT), Initial)?
A: 99.6

Q: And the Assay ([1]; Storage 40 C., 1-wk)?
A: 98.2

Q: What about the Assay ([1]; Storage 40 C., 2-wk) of the same compound?
A: 98.9

Q: And the Assay ([1]; Storage 40 C., 4-wk)?
A: 98.7

Q: What about the Assay ([1]; Storage 40 C., 8-wk) of the same compound?
A: 98.6

Q: What about the Assay ([1]; Storage 40 C., 15-wk) of the same compound?
A: 98.0

Q: And the Assay ([1]; Storage 40 C., Initial)?
A: 99.6

Q: What about the Assay value ([2]; 0.1% Solution, 1-M) of the same compound?
A: 101

Q: What about the Assay value ([2]; 0.1% Solution, 2-M) of the same compound?
A: 100.4

Q: What about the Assay value ([2]; 0.1% Solution, 3-M) of the same compound?
A: 100.7

Q: What about the Assay value ([2]; 0.1% Solution, 10-d) of the same compound?
A: 100.4

Q: What about the Assay value ([2]; 0.1% Solution, Initial) of the same compound?
A: 100.6

Q: What about the Assay value ([2]; 0.2% Solution, 1-M) of the same compound?
A: 98.9

Q: And the Assay value ([2]; 0.2% Solution, 2-M)?
A: 97.5

Q: And the Assay value ([2]; 0.2% Solution, 3-M)?
A: 99.4

Q: And the Assay value ([2]; 0.2% Solution, 10-d)?
A: 98.6

Q: And the Assay value ([2]; 0.2% Solution, Initial)?
A: 99.8

Q: And the Assay value ([2]; 0.4% Solution, 1-M)?
A: 94.9

Q: And the Assay value ([2]; 0.4% Solution, 2-M)?
A: 95.3

Q: And the Assay value ([2]; 0.4% Solution, 3-M)?
A: 95.8

Q: And the Assay value ([2]; 0.4% Solution, 10-d)?
A: 92.3

Q: And the Assay value ([2]; 0.4% Solution, Initial)?
A: 94.1
